Reference: ChEMBL document CHEMBL1201862, “PubChem BioAssay data set” (2004)
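Grown in 96-well plates, cells were treated for 48 hours with each compound at five concentrations. Insufficient inhibition: endpoint recorded as highest concentration tested. Abbreviation: GI50, concentration required for 50% inhibition of growth.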 Active and inactive are the calls of the source. Rule as the data show it: active = GI50 up to about 1.1 µM and inactive = higher.

How the values were obtained:
Assay in all cases: inhibition of tumour cell growth, NCI panel, 48 h
[1] = tested on: 786-0
[2] = tested on: A498
[3] = tested on: A549
[4] = tested on: ACHN
[5] = tested on: BT-549
[6] = tested on: CCRF-CEM
[7] = tested on: COLO 205
[8] = tested on: DU-145
[9] = tested on: EKVX
[10] = tested on: HCC 2998
[11] = tested on: HCT-116
[12] = tested on: HCT-15
[13] = tested on: HL-60
[14] = tested on: HOP-62
[15] = tested on: HOP-92
[16] = tested on: HT-29
[17] = tested on: Hs-578T
[18] = tested on: IGROV-1
[19] = tested on: K562
[20] = tested on: KM12
[21] = tested on: LOX IMVI
[22] = tested on: M14
[23] = tested on: MCF7
[24] = tested on: MDA-MB-231
[25] = tested on: MDA-MB-435
[26] = tested on: MDA-N
[27] = tested on: MOLT-4
[28] = tested on: Malme-3M
[29] = tested on: NCI-H226
[30] = tested on: NCI-H23
[31] = tested on: NCI-H460
[32] = tested on: NCI-H522
[33] = tested on: NCI/ADR-RES
[34] = tested on: OVCAR-3
[35] = tested on: OVCAR-4
[36] = tested on: OVCAR-5
[37] = tested on: PC-3
[38] = tested on: RPMI-8226
[39] = tested on: RXF 393
[40] = tested on: SF-268
[41] = tested on: SF-295
[42] = tested on: SF-539
[43] = tested on: SK-MEL-28
[44] = tested on: SK-MEL-2
[45] = tested on: SK-MEL-5
[46] = tested on: SK-OV-3
[47] = tested on: SN12C
[48] = tested on: SNB-19
[49] = tested on: SNB-75
[50] = tested on: SW-620
[51] = tested on: TK-10
[52] = tested on: U-251
[53] = tested on: UACC-257
[54] = tested on: UACC-62
[55] = tested on: UO-31
[56] = tested on: CAKI-1
[57] = tested on: OVCAR-8
[58] = tested on: SR

Cn1cc(C2NC(=O)c3ccccc3N2)c2ccccc21 (stereo not given)
GI50 [1]: 0.955 µM (active) | GI50 [2]: 206 nM (active) | GI50 [3]: 1.22 µM (inactive) | GI50 [4]: 1.75 µM (inactive) | GI50 [5]: > 100 µM (inactive) | GI50 [6]: 0.413 µM (active) | GI50 [7]: 0.925 µM (active) | GI50 [8]: 0.887 µM (active) | GI50 [9]: 0.998 µM (active) | GI50 [10]: 1.19 µM (inactive) | GI50 [11]: 0.587 µM (active) | GI50 [12]: 0.191 µM | GI50 [13]: 0.12 µM (active) | GI50 [14]: 0.861 µM (active) | GI50 [15]: 22.3 µM (inactive) | GI50 [16]: 0.191 µM (active) | GI50 [17]: 0.649 µM (active) | GI50 [18]: 1.51 µM (inactive) | GI50 [19]: 0.125 µM (active) | GI50 [20]: 0.0612 µM (active) | GI50 [21]: 0.877 µM (active) | GI50 [22]: 0.578 µM (active) | GI50 [23]: 0.124 µM (active) | GI50 [24]: 2.14 µM (inactive) | GI50 [25]: 0.0785 µM (active) | GI50 [26]: 0.0632 µM (active) | GI50 [27]: 0.255 µM (active) | GI50 [28]: 0.316 µM (active) | GI50 [29]: 0.746 µM (active) | GI50 [30]: 1.31 µM (inactive) | GI50 [31]: 1.06 µM (active) | GI50 [32]: 0.695 µM (active) | GI50 [33]: 0.491 µM (active) | GI50 [34]: 0.489 µM (active) | GI50 [35]: 0.306 µM (active) | GI50 [36]: 1.18 µM (inactive) | GI50 [37]: 0.188 µM (active) | GI50 [38]: 0.249 µM (active) | GI50 [39]: 0.681 µM (active) | GI50 [40]: 3.86 µM (inactive) | GI50 [41]: 0.305 µM (active) | GI50 [42]: 1.86 µM (inactive) | GI50 [43]: 0.643 µM (active) | GI50 [44]: 2.02 µM (inactive) | GI50 [45]: 0.182 µM (active) | GI50 [46]: 0.35 µM (active) | GI50 [47]: 1.63 µM (inactive) | GI50 [48]: 1.55 µM (inactive) | GI50 [49]: 0.873 µM (active) | GI50 [50]: 0.542 µM (active) | GI50 [51]: 2.94 µM (inactive) | GI50 [52]: 0.889 µM (active) | GI50 [53]: 5.6 µM (inactive) | GI50 [54]: 0.373 µM (active) | GI50 [55]: > 100 µM (inactive)

Cc1ccc(S(=O)(=O)Nn2c(C)cc3ccc(S(=O)(=O)Nc4ccccc4[N+](=O)[O-])cc3c2=O)cc1
GI50 [1]: > 100 µM (inactive) | GI50 [3]: 72.8 µM (inactive) | GI50 [4]: > 100 µM (inactive) | GI50 [5]: > 100 µM (inactive) | GI50 [56]: > 100 µM (inactive) | GI50 [6]: > 100 µM (inactive) | GI50 [7]: 18.6 µM (inactive) | GI50 [8]: > 100 µM (inactive) | GI50 [9]: 95.9 µM (inactive) | GI50 [10]: > 100 µM (inactive) | GI50 [11]: 47.4 µM (inactive) | GI50 [12]: > 100 µM | GI50 [13]: > 100 µM (inactive) | GI50 [14]: 72.3 µM (inactive) | GI50 [15]: 94.6 µM (inactive) | GI50 [16]: > 100 µM (inactive) | GI50 [17]: 45.3 µM (inactive) | GI50 [18]: 43 µM (inactive) | GI50 [19]: 3.85 µM (inactive) | GI50 [20]: 18.2 µM (inactive) | GI50 [21]: > 100 µM (inactive) | GI50 [22]: 13.6 µM (inactive) | GI50 [23]: 99.3 µM (inactive) | GI50 [24]: > 100 µM (inactive) | GI50 [25]: > 100 µM (inactive) | GI50 [26]: 29.6 µM (inactive) | GI50 [27]: > 100 µM (inactive) | GI50 [28]: > 100 µM (inactive) | GI50 [29]: 40.1 µM (inactive) | GI50 [30]: > 100 µM (inactive) | GI50 [31]: 77.3 µM (inactive) | GI50 [32]: > 100 µM (inactive) | GI50 [33]: > 100 µM (inactive) | GI50 [34]: 74.1 µM (inactive) | GI50 [35]: > 100 µM (inactive) | GI50 [36]: > 100 µM (inactive) | GI50 [57]: > 100 µM (inactive) | GI50 [37]: 31.6 µM (inactive) | GI50 [38]: 62.8 µM (inactive) | GI50 [40]: > 100 µM (inactive) | GI50 [41]: 17.6 µM (inactive) | GI50 [42]: > 100 µM (inactive) | GI50 [43]: > 100 µM (inactive) | GI50 [44]: 39.4 µM (inactive) | GI50 [46]: > 100 µM (inactive) | GI50 [47]: 82.4 µM (inactive) | GI50 [48]: > 100 µM (inactive) | GI50 [49]: > 100 µM (inactive) | GI50 [58]: > 100 µM (inactive) | GI50 [50]: > 100 µM (inactive) | GI50 [51]: > 100 µM (inactive) | GI50 [52]: > 100 µM (inactive) | GI50 [53]: > 100 µM (inactive) | GI50 [54]: 38.9 µM (inactive) | GI50 [55]: 63.7 µM (inactive)

c1nc(OCC2CCCCC2)c2nc[nH]c2n1
GI50 [1]: > 100 µM (inactive) | GI50 [3]: 66.4 µM (inactive) | GI50 [4]: 10.1 µM (inactive) | GI50 [5]: > 100 µM (inactive) | GI50 [56]: > 100 µM (inactive) | GI50 [6]: > 100 µM (inactive) | GI50 [7]: 32 µM (inactive) | GI50 [8]: 73.8 µM (inactive) | GI50 [9]: 53 µM (inactive) | GI50 [10]: > 100 µM (inactive) | GI50 [11]: 35.7 µM (inactive) | GI50 [12]: 46.3 µM | GI50 [13]: > 100 µM (inactive) | GI50 [14]: 55.7 µM (inactive) | GI50 [15]: 66.7 µM (inactive) | GI50 [16]: 49.9 µM (inactive) | GI50 [17]: > 100 µM (inactive) | GI50 [18]: 46.5 µM (inactive) | GI50 [19]: 99.8 µM (inactive) | GI50 [20]: 54.1 µM (inactive) | GI50 [21]: 34.9 µM (inactive) | GI50 [22]: 59.4 µM (inactive) | GI50 [24]: 63.2 µM (inactive) | GI50 [25]: 46.7 µM (inactive) | GI50 [26]: 28.2 µM (inactive) | GI50 [27]: 31.6 µM (inactive) | GI50 [28]: 70.5 µM (inactive) | GI50 [29]: 26.9 µM (inactive) | GI50 [30]: 45.3 µM (inactive) | GI50 [31]: 72.6 µM (inactive) | GI50 [32]: 44.4 µM (inactive) | GI50 [33]: 61.4 µM (inactive) | GI50 [34]: 53.1 µM (inactive) | GI50 [35]: > 100 µM (inactive) | GI50 [36]: 62.7 µM (inactive) | GI50 [57]: 47.2 µM (inactive) | GI50 [37]: 85.9 µM (inactive) | GI50 [38]: 15.6 µM (inactive) | GI50 [39]: 60.7 µM (inactive) | GI50 [40]: 44.5 µM (inactive) | GI50 [41]: 50.9 µM (inactive) | GI50 [42]: 36.1 µM (inactive) | GI50 [43]: > 100 µM (inactive) | GI50 [44]: 40.6 µM (inactive) | GI50 [45]: 26.1 µM (inactive) | GI50 [46]: 43.7 µM (inactive) | GI50 [47]: 57.8 µM (inactive) | GI50 [48]: > 100 µM (inactive) | GI50 [49]: 51.4 µM (inactive) | GI50 [50]: 59.6 µM (inactive) | GI50 [51]: > 100 µM (inactive) | GI50 [52]: 58.3 µM (inactive) | GI50 [53]: 91.8 µM (inactive) | GI50 [54]: 47.1 µM (inactive) | GI50 [55]: 42.9 µM (inactive)
